Data from ChEMBL document CHEMBL2150995, “Identification of an Adamantyl Azaquinolone JNK Selective Inhibitor” (ACS Med Chem Lett, 2012).
pEC50, pIC50: −log10 of the molar value. ≈ marks a conversion by molar mass, not a printed value. Values belong to the compound of their own block, whether it stands above or below them. Calls of active or inactive are those of the source. The calls are words filed in the database; no cut-off is given here.

Assays:
[1] = Solubility of the compound in acetonitrile/water at pH 6.5 by lyophilization solubility assay; format: physicochemical
[2] = Clearance in mouse liver microsomes; format: ADME, Microsome
[3] = target: T1, Mitogen-activated protein kinase 8 (Homo sapiens, UniProt P45983); experiment: Inhibition of JNK1 after 30 mins by TR-FRET assay
T1 sequence (P45983 whole entry): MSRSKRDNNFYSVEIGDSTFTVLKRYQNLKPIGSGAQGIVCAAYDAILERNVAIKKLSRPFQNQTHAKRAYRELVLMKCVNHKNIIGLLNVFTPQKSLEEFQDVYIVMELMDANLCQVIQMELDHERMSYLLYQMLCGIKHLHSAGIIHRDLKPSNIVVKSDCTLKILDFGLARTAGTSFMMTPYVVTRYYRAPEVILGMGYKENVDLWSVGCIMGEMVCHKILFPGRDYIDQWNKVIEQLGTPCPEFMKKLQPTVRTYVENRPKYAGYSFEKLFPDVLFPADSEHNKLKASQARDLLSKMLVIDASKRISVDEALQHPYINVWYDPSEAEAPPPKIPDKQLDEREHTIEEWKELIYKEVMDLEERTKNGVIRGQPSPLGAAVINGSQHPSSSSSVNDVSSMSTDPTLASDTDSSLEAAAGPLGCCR

[4] = target: T1, Mitogen-activated protein kinase 8; experiment: Inhibition of JNK1-mediated c-jun phosphorylation in TNF-alpha stimulated human HK-2 cells after 30 mins by TR-FRET assay; format: cell-based
[5] = Clearance in mouse hepatocytes; format: ADME, cell-based, Liver, Hepatocyte
[6] = Plasma concentration in C57 mouse at 30 mg/kg, po measured at 8 hrs; format: ADME, organism-based; parameters: dose 30 mg/kg, route oral
[7] = Tmax in C57 mouse at 30 mg/kg, po; format: ADME, organism-based; parameters: dose 30 mg/kg, route oral; details: in vivo
[8] = Mean residence time in C57 mouse at 30 mg/kg, po; format: ADME, organism-based; parameters: dose 30 mg/kg, route oral; details: in vivo
[9] = Drug uptake in C57 mouse kidney at 30 mg/kg, po measured at 8 hrs; format: ADME, organism-based; parameters: dose 30 mg/kg, route oral; details: read-out: Drug uptake
[10] = Cmax in C57 mouse at 30 mg/kg, po; format: ADME, organism-based; parameters: dose 30 mg/kg, route oral; details: in vivo
[11] = Drug uptake in C57 mouse liver at 30 mg/kg, po measured at 8 hrs; format: ADME, organism-based; parameters: dose 30 mg/kg, route oral; details: read-out: Drug uptake
[12] = AUC in C57 mouse at 30 mg/kg, po; format: ADME, organism-based; parameters: dose 30 mg/kg, route oral; details: plasma
[13] = Volume of distribution at steady state in C57 mouse at 5 mg/kg, iv; format: ADME, organism-based; parameters: dose 5 mg/kg, route intravenous; details: in vivo, read-out: Vdss
[14] = Volume of distribution in rat at 5 mg/kg, iv administered as DMSO formulation; format: ADME, organism-based; parameters: dose 5 mg/kg, route intravenous; details: in vivo
[15] = Mean residence time in C57 mouse at 5 mg/kg, iv administered as DMSO formulation; format: ADME, organism-based; parameters: dose 5 mg/kg, route intravenous; details: in vivo
[16] = Tmax in C57 mouse at 75 mg/kg, po administered as MBP formulation; format: ADME, organism-based; parameters: dose 75 mg/kg, route oral; details: in vivo
[17] = Clearance in C57 mouse at 5 mg/kg, iv; format: ADME, organism-based; parameters: dose 5 mg/kg, route intravenous; details: in vivo
[18] = Cmax in rat at 75 mg/kg, po administered as MBP formulation; format: ADME, organism-based; parameters: dose 75 mg/kg, route oral; details: in vivo
Rattus norvegicus [19] = experiment: In vivo inhibition of JNK-mediated c-jun phosphorylation in Sprague-Dawley rat kidney at 75 mg/kg, po bid administered in MBP formulation 23 hrs prior TNF-alpha challenge measured 1 hr post challenge by Western blot method; format: functional, organism-based; parameters: dose 75 mg/kg
[20] = Half life in C57 mouse at 5 mg/kg, iv administered as DMSO formulation; format: ADME, organism-based; parameters: dose 5 mg/kg, route intravenous; details: in vivo
[21] = AUC in C57 mouse at 30 mg/kg, po administered as DMSO formulation; format: ADME, organism-based; parameters: dose 30 mg/kg, route oral; details: plasma
[22] = Extrapolated AUC in rat at 5 mg/kg, iv administered as DMSO formulation; format: ADME, organism-based; parameters: dose 5 mg/kg, route intravenous; details: in vivo
[23] = Volume of distribution in C57 mouse at 5 mg/kg, iv administered as DMSO formulation; format: ADME, organism-based; parameters: dose 5 mg/kg, route intravenous; details: in vivo
[24] = Cmax in C57 mouse at 75 mg/kg, po administered as MBP formulation; format: ADME, organism-based; parameters: dose 75 mg/kg, route oral; details: in vivo
Rattus norvegicus [25] = experiment: In vivo inhibition of JNK-mediated c-jun phosphorylation in Sprague-Dawley rat assessed as phosphorylated c-jun level in kidney at 75 mg/kg, po administered as single dose in MBP formulation 7 hrs prior TNF-alpha challenge measured 1 hr post challenge by Western blot method relative to untreated control; format: functional
[26] = Tmax in rat at 30 mg/kg, po administered as DMSO formulation; format: ADME, organism-based; parameters: dose 30 mg/kg, route oral; details: in vivo
Rattus norvegicus [27] = experiment: In vivo inhibition of JNK-mediated c-jun phosphorylation in Sprague-Dawley rat kidney at 75 mg/kg, po tid administered in MBP formulation 23 hrs prior TNF-alpha challenge measured 1 hr post challenge by Western blot method; format: functional, organism-based; parameters: dose 75 mg/kg
[28] = AUC in rat at 75 mg/kg, po administered as MBP formulation; format: ADME, organism-based; parameters: dose 75 mg/kg, route oral; details: plasma
[29] = AUC in C57 mouse at 75 mg/kg, po administered as MBP formulation; format: ADME, organism-based; parameters: dose 75 mg/kg, route oral; details: plasma
[30] = AUC in rat at 30 mg/kg, po administered as DMSO formulation; format: ADME, organism-based; parameters: dose 30 mg/kg, route oral; details: plasma
[31] = Mean residence time in rat at 5 mg/kg, iv administered as DMSO formulation; format: ADME, organism-based; parameters: dose 5 mg/kg, route intravenous; details: in vivo
[32] = Cmax in rat at 30 mg/kg, po administered as DMSO formulation; format: ADME, organism-based; parameters: dose 30 mg/kg, route oral; details: in vivo
[33] = Half life in rat at 30 mg/kg, po administered as DMSO formulation; format: ADME, organism-based; parameters: dose 30 mg/kg, route oral; details: in vivo
[34] = Tmax in rat at 75 mg/kg, po administered as MBP formulation; format: ADME, organism-based; parameters: dose 75 mg/kg, route oral; details: in vivo
[35] = Clearance in C57 mouse at 5 mg/kg, iv administered as DMSO formulation; format: ADME, organism-based; parameters: dose 5 mg/kg, route intravenous; details: in vivo
[36] = Tmax in C57 mouse at 30 mg/kg, po administered as DMSO formulation; format: ADME, organism-based; parameters: dose 30 mg/kg, route oral; details: in vivo
[37] = Clearance in rat at 5 mg/kg, iv administered as DMSO formulation; format: ADME, organism-based; parameters: dose 5 mg/kg, route intravenous; details: in vivo
[38] = AUC (0 to 24 hrs) in C57 mouse at 5 mg/kg, iv; format: ADME, organism-based; parameters: time < 24 hr, dose 5 mg/kg, route intravenous; details: plasma
[39] = Cmax in C57 mouse at 30 mg/kg, po administered as DMSO formulation; format: ADME, organism-based; parameters: dose 30 mg/kg, route oral; details: in vivo
[40] = Extrapolated AUC in C57 mouse at 5 mg/kg, iv administered as DMSO formulation; format: ADME, organism-based; parameters: dose 5 mg/kg, route intravenous; details: in vivo
[41] = Half life in rat at 5 mg/kg, iv administered as DMSO formulation; format: ADME, organism-based; parameters: dose 5 mg/kg, route intravenous; details: in vivo
[42] = Half life in rat at 75 mg/kg, po administered as MBP formulation; format: ADME, organism-based; parameters: dose 75 mg/kg, route oral; details: in vivo
[43] = Solubility of the compound in MeOH solvate by lyophilization solubility assay; format: physicochemical
[44] = Half life in C57 mouse at 75 mg/kg, po administered as MBP formulation; format: ADME, organism-based; parameters: dose 75 mg/kg, route oral; details: in vivo

Structure (SMILES): COC(=O)c1c(Cc2ccc(C(=O)N[C@H]3CC[C@H](O)CC3)cc2)c(=O)c2cccnc2n1-c1ccccc1
concentration at 8 h [6]: 810 nM
Tmax [7]: 0.25 h
MRT [8]: 3.45 h
concentration at 8 h [9]: 1890 nM
Vd [13]: 0.73 L/kg
concentration at 8 h [11]: 5570 nM

Structure (SMILES): COC(=O)c1c(Cc2ccc(C(=O)N[C@H](CO)C(C)(C)C)cc2)c(=O)c2cccnc2n1-c1ccccc1
concentration at 8 h [6]: 20 nM
Tmax [7]: 0.25 h
MRT [8]: 1.42 h
concentration at 8 h [9]: 30 nM
concentration at 8 h [11]: 230 nM

Structure (SMILES): COC(=O)c1c(Cc2ccc(C(=O)NCC(C)(C)O)cc2)c(=O)c2cccnc2n1-c1ccccc1
concentration at 8 h [6]: 740 nM
Tmax [7]: 0.25 h
MRT [8]: 3.14 h
concentration at 8 h [9]: 1420 nM
concentration at 8 h [11]: 4000 nM

Structure (SMILES): COC(=O)c1c(Cc2ccc(C(=O)N[C@@H]3[C@@H]4C[C@@H]5C[C@H]3C[C@@](O)(C5)C4)cc2)c(=O)c2cccnc2n1-c1ccccc1
solubility [1]: 14 µg/mL (≈ 24.8 µM)
Vd [14]: 0.61 L/kg
concentration at 8 h [6]: 560 nM
MRT [15]: 0.6 h
Tmax [16]: 1 h
clearance [17]: 8.4 mL/min/kg
Cmax [18]: 30100 ng/mL
Tmax [7]: 0.25 h
inhibition (Rattus norvegicus [19]): Active
half-life [20]: 0.6 h
AUC [21]: 22400 ng·h/mL
AUC [22]: 16300 ng·h/mL
MRT [8]: 2.38 h
Vd [23]: 0.3 L/kg
concentration at 8 h [9]: 860 nM
CLhep predicted [2]: 59 mL/min/kg
Cmax [24]: 18100 ng/mL
inhibition in vivo at 75 mg/kg (Rattus norvegicus [25]): 52%
Tmax [26]: 4 h
inhibition (Rattus norvegicus [27]): Active
Vd [13]: 0.3 L/kg
pIC50 [3]: 7.92
AUC [28]: 252000 ng·h/mL
AUC [29]: 49200 ng·h/mL
pEC50 [4]: 5.39
Cmax [10]: 13600 ng/mL
AUC [30]: 48300 ng·h/mL
MRT [31]: 1.8 h
Cmax [32]: 8030 ng/mL
half-life [33]: 2.4 h
CLhep predicted [5]: 10.9 mL/min/kg
concentration at 8 h [11]: 2960 nM
Tmax [34]: 4 h
clearance [35]: 8.4 mL/min/kg
Tmax [36]: 0.25 h
clearance [37]: 6.4 mL/min/kg
AUC(0-t) at 24 h [38]: 9890 ng·h/mL
Cmax [39]: 13600 ng/mL
AUC [40]: 9890 ng·h/mL
half-life [41]: 2.4 h
half-life [42]: 2 h
AUC [12]: 22400 ng·h/mL
solubility [43]: 14 µg/mL (≈ 24.8 µM)
half-life [44]: 1.62 h

Results, then the compound that gave them:

solubility [1]: 4.6 µg/mL (≈ 9.37 µM)
CLhep predicted [2]: 67 mL/min/kg
pIC50 [3]: 7.36
pEC50 [4]: 5.00
CLhep predicted [5]: 31.7 mL/min/kg
Structure (SMILES): COC(=O)c1c(Cc2ccc(C(=O)NCCO)cc2)c(=O)c2ccc(Cl)cc2n1-c1ccccc1

solubility [1]: 21.9 µg/mL (≈ 38.9 µM)
Structure (SMILES): COC(=O)c1c(Cc2ccc(C(=O)N[C@@H]3[C@@H]4C[C@@H]5C[C@H]3C[C@@](N)(C5)C4)cc2)c(=O)c2cccnc2n1-c1ccccc1

solubility [1]: 138 µg/mL (≈ 285 µM)
concentration at 8 h [6]: 380 nM
Tmax [7]: 0.25 h
MRT [8]: 1.73 h
concentration at 8 h [9]: 860 nM
CLhep predicted [2]: 45 mL/min/kg
pIC50 [3]: 7.35
pEC50 [4]: 4.68
Cmax [10]: 4370 ng/mL
CLhep predicted [5]: 33.2 mL/min/kg
concentration at 8 h [11]: 4490 nM
AUC [12]: 7480 ng·h/mL
Structure (SMILES): COC(=O)c1c(Cc2ccc(C(=O)NC3(CO)CC3)cc2)c(=O)c2cccnc2n1-c1ccccc1

solubility [1]: 25 µg/mL (≈ 44.4 µM)
CLhep predicted [2]: 81 mL/min/kg
pIC50 [3]: 7.33
pEC50 [4]: 5.07
Structure (SMILES): COC(=O)c1c(Cc2ccc(C(=O)N[C@H]3[C@@H]4C[C@@H]5C[C@H]3C[C@@](O)(C5)C4)cc2)c(=O)c2cccnc2n1-c1ccccc1

solubility [1]: 103 µg/mL (≈ 212 µM)
concentration at 8 h [6]: 380 nM
Tmax [7]: 0.25 h
MRT [8]: 2.03 h
concentration at 8 h [9]: 620 nM
CLhep predicted [2]: 58 mL/min/kg
pIC50 [3]: 7.35
pEC50 [4]: 5.05
Cmax [10]: 3840 ng/mL
CLhep predicted [5]: 52.9 mL/min/kg
concentration at 8 h [11]: 2490 nM
AUC [12]: 7010 ng·h/mL
Structure (SMILES): COC(=O)c1c(Cc2ccc(C(=O)NC(C)(C)CO)cc2)c(=O)c2cccnc2n1-c1ccccc1
